In patent publication US20090060861A1, “Stabilized Polypeptide Formulations” (NOVO Nordisk A/S, priority 2005, published 2009):
Where two headings read alike, the source gives them in different places.

Columns and labels:
[1] = molecular target: T1, insulin aspart (Asp^B28 human insulin) (Homo sapiens, UniProt P01308, P52D); conditions: pH 7.4
Experimental: Compositions comprising the buffer components covered by the present invention were prepared according to the above-mentioned and a reference composition containing 7 mM sodium phosphate as buffer component was prepared in parallel.

human insulin = human insulin (Homo sapiens, UniProt P01308)
[2] = molecular target: T1, insulin aspart (Asp^B28 human insulin); assay: Chemical stability of the polypeptide, degradation products formed during storage; conditions: insulin aspart compositions, 1-100 mM buffer; 3 months storage at 5° C. or 37° C.; data not shown
[3] = molecular target: T1, insulin aspart (Asp^B28 human insulin)
[4] = insulin aspart 600 nmol/mL, 1-100 mM buffer, 37° C., shake 1200 rpm, n=12
[5] = human insulin, 6.7 mM buffer, n=12

Chain of human insulin (P01308 25-54 limits assumed): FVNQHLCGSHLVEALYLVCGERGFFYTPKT
Chain of human insulin (P01308 90-110 limits assumed): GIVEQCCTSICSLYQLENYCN
T1 sequence (P01308 25-54 P52D): as the sequence (P01308 25-54 limits assumed) above, with P28D counted along it

| Compound | polypeptide stability (physical stability, ThT lag-time) compared to compositions comprising phosphate buffer (7 mM) [1, 4] | polypeptide stability (physical stability, ThT lag-time) compared to compositions comprising phosphate buffer (human insulin; [5]) | impact on chemical stability of the polypeptide (amount of degradation products formed) [2] | impact on chemical stability of the polypeptide (amount of degradation products formed) [3] | polypeptide stability (physical stability, ThT lag-time) compared to compositions comprising phosphate buffer (7 mM) [1] | polypeptide stability (physical stability, ThT lag-time) compared to compositions comprising phosphate buffer (human insulin) |
| --- | --- | --- | --- | --- | --- | --- |
| CCC(CC)(C(=O)O)C(=O)O [diethylmalonic acid, diethylpropanedioic acid] | increased | increased | No significant impact | – | – | – |
| CC[N+](CC)(CC)CC.[Cl-] [T.E.A. chloride, tetraethylammonium chloride] | increased | increased | – | No significant impact | – | – |
| Cl.NCC(N)=O [glycinamid hydrochloride] | – | – | No significant impact | – | increased | increased |
| CC(N)(CO)CO [AMPD, 2-amino-2-methyl-1,3-propanediol] | increased | increased | No significant impact | – | – | – |
| O=C(O)c1ccc(C(=O)O)c(C(=O)O)c1 [trimellitic acid, 1,2,4-benzenetricarboxylic acid] | increased | increased | No significant impact | – | – | – |
